In patent publication US20150190416A1, “FILAGGRIN PRODUCTION PROMOTER, THERAPEUTIC AGENT FOR DISEASES ASSOCIATED WITH REDUCTION IN PRODUCTION OF FILAGGRIN, AND METHOD FOR SCREENING FOR SAID THERAPEUTIC AGENT” (KYOTO UNIVERSITY, priority 2012, published 2015):

Assays:
GPR142 [1] = assay: Blocking effect by GPR142 RNAi in NHEK cells (Examples 5 and 6); format: cell-based, human; conditions: 1 day; for induction of FLG mRNA expression: dependence on GPR142: GPR142 siRNA, compound 10 nM
Experimental: In this example, it was confirmed that the expression-inducing effects of Compound 1 on GPR142 mRNA and FLG mRNA in NHEK cells were blocked by GPR142 RNAi.
(§1) 1) 5×10^4 cells/well of NHEK cells (Invitrogen) were plated on a 24-well plate. Then, 500 μl of a culture medium containing a medium for proliferating normal human epidermal keratinocytes (HuMedia-KG2, KURABO INDUSTRIES LTD.) supplemented with hEGF (0.1 ng/ml), insulin (10 μg/ml), hydrocortisone (0.5 μg/ml), gentamycin (50 μg/ml), amphotericin B (50 ng/ml), and bovine brain pituitary extract (BPE) (0.4%, v/v) were added to the plate, and the cells were cultured under the conditions of 37° C. and 5% CO2.
2) After culture under the conditions of the step 1) for 1 day, the medium was exchanged for the culture medium of the step 1) to which CaCl2 (1.2 mM in terms of Ca) was further added as Ca, and culture was conducted under the conditions of 37° C. and 5% CO2. After culture for 1 day, the medium was exchanged for the same culture medium containing Ca, and culture was further conducted for 1 day.
3) The NHEK cells of the step 2) were transfected with 50 nM of siRNA per well of the 24-well plate by using a transfection reagent, Lipofectamine RNA Max (Invitrogen) according to the manufacturer's protocol.
The sequences of the used three kinds of GPR142 siRNAs and the sequences of the used control siRNAs (all the siRNAs are manufactured by Invitrogen) are described below.
4) After culture for 1 day after the transfection with siRNA in the step 3), the medium was exchanged for the culture medium of the step 1) to which a DMSO solution of Compound 1 was added at 10 nM per well, and culture was further conducted for 1 day. As a control, a solvent only (vehicle) was added.
5) An extraction reagent (TRIzol™, Invitrogen) was used, and according to the manufacturer's protocol, total RNA was extracted from each of cells treated with the medicament. A reverse transcriptase reagent (Prime Script™, Takara) was used, and according to the manufacturer's protocol, cDNA was prepared from the total RNA. Next, real-time PCR was conducted by using the following primers and SYBR™ Premix Ex Taq (Takara) with a CFX96 real-time PCR instrument according to the manufacturer's protocol, and the amounts of GPR142 mRNA and FLG mRNA expression were measured. The result of measurement is shown as a GAPDH ratio.
In this example, it was confirmed that the expression-inducing effects of Compound 2 or 3 on GPR142 mRNA and FLG mRNA in NHEK cells were blocked by GPR142 RNAi.
NHEK cells were transfected in the same manner as in Example 5 except that, in the steps 1) to 3) of Example 5, two kinds of GPR142 siRNAs and two kinds of control siRNAs, i.e., GPR142-1 (#HSS139493) and GPR142-3 (#HSS179846) and Control-1 (LOW GC, #129350-200), and Control-3 (HIGH GC, #129350-400) were used as GPR142 siRNAs and control siRNAs, respectively. After culture for 1 day after the transfection was conducted in the same manner as in the step 4) of Example 5, the medium was exchanged for the culture medium to which each of a DMSO solution of Compound 1, a DMSO solution of Compound 2, or a methanol solution of Compound 3 was added at 10 nM per well, and culture was further conducted for 1 day. As a control, a solvent only (vehicle) was added. Regarding each of cells treated with the medicament, real-time PCR was conducted to measure the amounts of GPR142 mRNA and FLG mRNA in the same manner as in the step 5) of Example 5. The results of the measurement are shown as a GAPDH ratio.

GPR142 [2] = assay: G protein-coupled receptor (GPCR) array in NHEK cells, GPR142 (Example 3); format: cell-based, human; conditions: Compound 1 1 μM, 3 days
Experimental: In this example, the expression-increasing effect of Compound 1 on a GPCR in NHEK cells was confirmed by using a GPCR array.
as §1, with “plate, and then” for “plate. Then,”, “CO2 for from 3 to 4 days until the 80 to 85% confluent state was achieved.” for “CO2.”
2) Next, a DMSO solution of Compound 1 was added to the medium at 1 μM per well, and culture was further conducted for 3 days without changing the medium. In addition, regarding the system to which only CaCl2 (1.5 mM in terms of Ca) as Ca was added and the system to which both Compound 1 and CaCl2 (1.5 mM in terms of Ca) as Ca were added, the culture was conducted in a similar manner for 3 days. As a control example, a solvent only (vehicle) was added.
3) An extraction reagent (TRIzol™, Invitrogen) was used, and according to the manufacturer's protocol, total RNA was extracted from each of cells treated in the step 2). A reverse transcriptase reagent (Prime Script™, Takara) was used, and according to the manufacturer's protocol, cDNA was prepared from the total RNA. Next, a TaqMan™ human GPCR array (AB 4365295, Applied Biosystems) was used, and the analysis was conducted by an ABI PRISM™ 7900HT gene analyzer (Applied Biosystems). The result of measurement was shown as the comparison of the cycle number (ΔCt value) to 18S ribosomal RNA as a control (comparative Ct method).

[3] = calcium priming, siRNA 50 nM, Compound 1 10 nM

Compound	induction of FLG mRNA expression: dependence on GPR142 (GPR142 [1])	FLG mRNA expression in the presence of GPR142 siRNA (GPR142 [1]; [3])	GPR142 mRNA expression in the presence of GPR142 siRNA (GPR142 [1]; [3])	GPR142 mRNA expression (GPCR array), in words (GPR142 [2]; Ca 1.5 mM)	GPR142: cycle number (ΔCt value) to 18S ribosomal RNA (GPR142 [2]; CaCl2 1.5 mM in terms of Ca, control 29.2)
CCc1ccc(OCc2ccccc2C(=O)Nc2ccc3nc(C)cc(N)c3c2)cc1.Cl [Compound 1, N-(4-Amino-2-methyl-6-quinolyl)-2-[(4-ethylphenoxy)methyl]benzamide hydrochloride]	mediated by GPR142	suppressed by GPR142 siRNA	suppressed by GPR142 siRNA	expression was induced	−4.9
CC[C@H](C)[C@H]1O[C@]2(CC[C@@H]1C)C[C@@H]1C[C@@H](C/C=C(\C)[C@@H](O[C@H]3C[C@H](OC)[C@@H](O[C@H]4C[C@H](OC)[C@@H](O)[C@H](C)O4)[C@H](C)O3)[C@@H](C)/C=C/C=C3\CO[C@@H]4[C@H](O)C(C)=C[C@@H](C(=O)O1)[C@]34O)O2 [Compound 2, Ivermectin, reference compound]	mediated by GPR142	–	–	–	–
